≈ marks a conversion by molar mass, not a printed value. Where two headings read alike, the source gives them in different places.

For orientation: MIC means the smallest concentration in the dilution series that meets the test's criterion for growth inhibition.

For data set [1] the following is noted: cited from earlier work.
A short description of data set [2]: Long-term stability study, residual activity of stored penicillin. In kind it is physicochemical. Conditions: stored at 25° C. and 37° C. Here is the method: To determine if incorporation into silk films would have a similar stabilizing effect to that observed for enzymes, a long-term stability study was carried out comparing the residual activity of penicillin stored in 8% (w/v) silk films or in solution at 4° C. (refrigeration), 25° C. (room temperature) and 37° C. (body temperature).
Stability was also characterized for dry penicillin powder stored at 4° C., 25° C., and 37° C. Comparison of the stability of penicillin stored in silk films, in solution and in dry powder format over 60 days is shown in FIG. 14.

The next data set relates to E. coli ATCC 25922. The settings on record: E. coli ATCC 25922, NCCLS (2000); cited from earlier work.
Another data set concerns S. aureus ATCC 25923. Conditions: S. aureus ATCC 25923, NCCLS (2000); cited from earlier work.

On to penicillin, for which the “time of breakdown in solution” value in data set [1] (37° C.) is at most 24 h; in data set [1] (room temperature (25° C.)), “within weeks”. Moreover, the “stability of penicillin in solution” value in data set [2] is “rapidly declines”.
With gentamicin, the minimum inhibitory concentration (MIC) is 0.5 µg/mL in the data set on E. coli ATCC 25922 and 0.25 µg/mL with S. aureus ATCC 25923.
As to `Cc1nnc(SCC2=C(C(=O)O)N3C(=O)[C@@H](NC(=O)Cn4cnnn4)[C@H]3SC2)s1` [cefazolin], the MIC with E. coli ATCC 25922 is 1.0 µg/mL (≈ 2.2 µM); with S. aureus ATCC 25923, 0.25 µg/mL (≈ 0.55 µM).
